Results reported in PubChem BioAssay (NCI).
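Results reflect a 48-hour exposure of cells in 96-well plates to compound at five concentrations. The concentration for 50% growth inhibition is given as GI50. TGI is the concentration that stops growth completely.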

Experiments:
Experiment in all cases: DTP human tumour cell line panel, 48 h
SF-268 CNS = tested on: SF-268 CNS
NCI-H226 lung = tested on: NCI-H226 lung
MDA-MB-231 breast = tested on: MDA-MB-231 breast
HCC-2998 colon = tested on: HCC-2998 colon
SR leukemia = tested on: SR leukemia
CCRF-CEM leukemia = tested on: CCRF-CEM leukemia
A498 renal = tested on: A498 renal
HOP-92 NSCLC = tested on: HOP-92 NSCLC
KM20L2 colon = tested on: KM20L2 colon
DLD-1 colon = tested on: DLD-1 colon

Work on `CCCCCOC(=O)c1c(C)[nH]c(/C=C2\N=C(c3ccc[nH]3)C=C2OC)c1C` yielded a GI50 (SF-268 CNS) of 0.0302 µM, a TGI (SF-268 CNS) of 1.87 µM and a GI50 (NCI-H226 lung) of 0.222 µM. For the same compound, the TGI (NCI-H226 lung) was 2.13 µM, the GI50 (MDA-MB-231 breast) was less than 0.0162 µM and the TGI (MDA-MB-231 breast) was 0.216 µM. The GI50 (HCC-2998 colon) was 0.0285 µM, the TGI (HCC-2998 colon) was 1.39 µM and the GI50 (SR leukemia) was less than 0.0107 µM. It also gave a TGI (SR leukemia) of 0.0403 µM, a GI50 (CCRF-CEM leukemia) of 0.0194 µM and a TGI (CCRF-CEM leukemia) of 1.99 µM. For the same compound, the GI50 (A498 renal) was 0.124 µM, the TGI (A498 renal) was 1.02 µM and the GI50 (HOP-92 NSCLC) was 0.0214 µM. For the same compound, the TGI (HOP-92 NSCLC) was 0.116 µM.

`CCO/C(O)=c1/s/c(=C2/SC(=S)N(c3ccc(C)cc3)C2=O)n(-c2ccccc2)c1=N` was tested, and the TGI (SF-268 CNS) was greater than 95.8 µM, the TGI (NCI-H226 lung) was greater than 76.9 µM and the TGI (MDA-MB-231 breast) was 59 µM. For the same compound, the TGI (HCC-2998 colon) was greater than 100 µM, the TGI (SR leukemia) was greater than 100 µM and the TGI (CCRF-CEM leukemia) was greater than 100 µM. It also gave a TGI (A498 renal) greater than 100 µM and a TGI (HOP-92 NSCLC) greater than 100 µM.

`O=C1/C(=C/c2cc(O)c(O)c(O)c2)Oc2cc(O)cc(OC3OC(CO)C(O)C(O)C3O)c21` (stereo not drawn) gave a TGI (KM20L2 colon) of 74 µM, a TGI (HCC-2998 colon) greater than 100 µM and a TGI (DLD-1 colon) of 42.4 µM. For the same compound, the TGI (CCRF-CEM leukemia) was 44.5 µM, the TGI (A498 renal) was greater than 100 µM and the TGI (HOP-92 NSCLC) was 38.7 µM.

With `C/C(=C1\C(=O)Nc2ccccc21)c1cccc(/C(C)=C2/C(=O)Nc3ccccc32)n1` the GI50 (SF-268 CNS) was 7.42 µM, the TGI (SF-268 CNS) was 71.8 µM and the GI50 (NCI-H226 lung) was 4.53 µM. For the same compound, the TGI (NCI-H226 lung) was 24.5 µM, the GI50 (MDA-MB-231 breast) was 11.5 µM and the TGI (MDA-MB-231 breast) was 74.7 µM. For the same compound, the GI50 (HCC-2998 colon) was 2.38 µM, the TGI (HCC-2998 colon) was 5.7 µM and the GI50 (SR leukemia) was 4.96 µM. For the same compound, the TGI (SR leukemia) was greater than 100 µM, the GI50 (CCRF-CEM leukemia) was 6.55 µM and the TGI (CCRF-CEM leukemia) was greater than 100 µM. For the same compound, the GI50 (A498 renal) was 4.44 µM, the TGI (A498 renal) was 34.8 µM and the GI50 (HOP-92 NSCLC) was 15.7 µM. It also gave a TGI (HOP-92 NSCLC) of 85.3 µM.

Work on `COc1ccc(-c2nn3ncccc3c2-c2ccnc(Nc3ccc(F)c(F)c3)n2)cc1` yielded a GI50 (SF-268 CNS) of 14.2 µM, a TGI (SF-268 CNS) greater than 25 µM and a GI50 (NCI-H226 lung) of 13.9 µM. The TGI (NCI-H226 lung) was greater than 25 µM, the GI50 (MDA-MB-231 breast) was 9.1 µM and the TGI (MDA-MB-231 breast) was greater than 25 µM. It also gave a GI50 (HCC-2998 colon) of 6.72 µM, a TGI (HCC-2998 colon) greater than 25 µM and a GI50 (SR leukemia) of 18.7 µM. It also gave a TGI (SR leukemia) greater than 25 µM, a GI50 (CCRF-CEM leukemia) of 11.2 µM and a TGI (CCRF-CEM leukemia) greater than 25 µM. It also gave a GI50 (A498 renal) of 3.96 µM, a TGI (A498 renal) greater than 23 µM and a GI50 (HOP-92 NSCLC) of 3.99 µM. For the same compound, the TGI (HOP-92 NSCLC) was greater than 25 µM.

`CCN(CC)CCN1C(=O)C2C3C(C)=CC(OC(C)=O)(CC3C)C2C1=O` (stereo not drawn) showed a GI50 (SF-268 CNS) greater than 100 µM, a TGI (SF-268 CNS) greater than 100 µM and a GI50 (NCI-H226 lung) greater than 100 µM. For the same compound, the TGI (NCI-H226 lung) was greater than 100 µM, the GI50 (MDA-MB-231 breast) was greater than 100 µM and the TGI (MDA-MB-231 breast) was greater than 100 µM. The GI50 (HCC-2998 colon) was greater than 100 µM, the TGI (HCC-2998 colon) was greater than 100 µM and the GI50 (SR leukemia) was greater than 100 µM. The TGI (SR leukemia) was greater than 100 µM, the GI50 (CCRF-CEM leukemia) was greater than 100 µM and the TGI (CCRF-CEM leukemia) was greater than 100 µM. It also gave a GI50 (A498 renal) greater than 100 µM, a TGI (A498 renal) greater than 100 µM and a GI50 (HOP-92 NSCLC) greater than 100 µM. For the same compound, the TGI (HOP-92 NSCLC) was greater than 100 µM.

Work on `CCOc1cc(/C=C/C(=O)CC(=O)/C=C/c2ccc(OC(=O)CNc3nc4ccc(OC)cc4s3)c(OCC)c2)ccc1OC(=O)CNc1nc2ccc(OC)cc2s1` yielded a GI50 (SF-268 CNS) of 3.12 µM, a TGI (SF-268 CNS) of 25.8 µM and a GI50 (NCI-H226 lung) of 12.9 µM. The TGI (NCI-H226 lung) was 34.1 µM, the GI50 (MDA-MB-231 breast) was 13.8 µM and the TGI (MDA-MB-231 breast) was 60 µM. It also gave a GI50 (HCC-2998 colon) of 3.16 µM, a TGI (HCC-2998 colon) of 14.8 µM and a GI50 (SR leukemia) of 1.77 µM. For the same compound, the TGI (SR leukemia) was 4.66 µM, the GI50 (CCRF-CEM leukemia) was 1.96 µM and the TGI (CCRF-CEM leukemia) was 5.46 µM. For the same compound, the GI50 (A498 renal) was 13.4 µM, the TGI (A498 renal) was 26.2 µM and the GI50 (HOP-92 NSCLC) was 18 µM. The TGI (HOP-92 NSCLC) was 56.3 µM.

`CCN(Cc1ccccc1)c1ccc(/C=C2\COc3ccccc3C2=O)cc1` showed a GI50 (SF-268 CNS) greater than 1000 µM, a TGI (SF-268 CNS) greater than 1000 µM and a GI50 (NCI-H226 lung) greater than 1000 µM. For the same compound, the TGI (NCI-H226 lung) was greater than 1000 µM, the GI50 (MDA-MB-231 breast) was 896 µM and the TGI (MDA-MB-231 breast) was greater than 1000 µM. The GI50 (HCC-2998 colon) was greater than 1000 µM, the TGI (HCC-2998 colon) was greater than 1000 µM and the GI50 (SR leukemia) was 54 µM. The TGI (SR leukemia) was greater than 1000 µM, the GI50 (CCRF-CEM leukemia) was 73.5 µM and the TGI (CCRF-CEM leukemia) was greater than 1000 µM. For the same compound, the GI50 (A498 renal) was greater than 1000 µM, the TGI (A498 renal) was greater than 1000 µM and the GI50 (HOP-92 NSCLC) was 553 µM. For the same compound, the TGI (HOP-92 NSCLC) was greater than 1000 µM.

In the case of `N#Cc1nc2cc(Cl)c(Cl)cc2nc1-c1ccc(Cl)cc1`, the GI50 (SF-268 CNS) is reported as 27.4 µM, the TGI (SF-268 CNS) is reported as greater than 72.7 µM and the GI50 (NCI-H226 lung) is reported as 21.7 µM. The TGI (NCI-H226 lung) was greater than 61.6 µM, the GI50 (MDA-MB-231 breast) was 22.3 µM and the TGI (MDA-MB-231 breast) was greater than 73.4 µM. It also gave a GI50 (HCC-2998 colon) of 0.165 µM, a TGI (HCC-2998 colon) of 18.2 µM and a GI50 (SR leukemia) of 22 µM. For the same compound, the TGI (SR leukemia) was 53.1 µM, the GI50 (CCRF-CEM leukemia) was 8.61 µM and the TGI (CCRF-CEM leukemia) was 25.7 µM. For the same compound, the GI50 (A498 renal) was 21.5 µM, the TGI (A498 renal) was 60.7 µM and the GI50 (HOP-92 NSCLC) was 27.8 µM. It also gave a TGI (HOP-92 NSCLC) greater than 100 µM.

With `CN1CCN(c2ccc3nc(-c4[nH]ncc4Nc4ncnc5[nH]ccc45)[nH]c3c2)CC1` the GI50 (SF-268 CNS) was 0.25 µM, the TGI (SF-268 CNS) was 0.803 µM and the GI50 (NCI-H226 lung) was 0.212 µM. The TGI (NCI-H226 lung) was 1.01 µM, the GI50 (MDA-MB-231 breast) was 0.184 µM and the TGI (MDA-MB-231 breast) was 0.801 µM. It also gave a GI50 (HCC-2998 colon) of 0.375 µM, a TGI (HCC-2998 colon) of 4.52 µM and a GI50 (SR leukemia) of 0.0472 µM. It also gave a GI50 (CCRF-CEM leukemia) of 0.171 µM, a TGI (CCRF-CEM leukemia) of 22.3 µM and a GI50 (A498 renal) of 0.253 µM. It also gave a TGI (A498 renal) of 0.588 µM, a GI50 (HOP-92 NSCLC) of 0.149 µM and a TGI (HOP-92 NSCLC) of 0.535 µM.

`CC(C)N1CCOC(c2ccc(O)c(O)c2)C1` (stereo not drawn) showed a TGI (SF-268 CNS) greater than 100 µM, a TGI (KM20L2 colon) greater than 100 µM and a TGI (HCC-2998 colon) greater than 100 µM. It also gave a TGI (DLD-1 colon) greater than 100 µM, a TGI (CCRF-CEM leukemia) greater than 100 µM and a TGI (HOP-92 NSCLC) greater than 100 µM.

For `CC(C)Cn1cnc2c(N)nc3ccccc3c21`, the GI50 (SF-268 CNS) was 61.3 µM, the TGI (SF-268 CNS) was greater than 100 µM and the GI50 (NCI-H226 lung) was 73.6 µM. For the same compound, the TGI (NCI-H226 lung) was greater than 100 µM, the GI50 (MDA-MB-231 breast) was 46 µM and the TGI (MDA-MB-231 breast) was greater than 100 µM. The GI50 (HCC-2998 colon) was greater than 63.5 µM, the TGI (HCC-2998 colon) was greater than 100 µM and the GI50 (SR leukemia) was greater than 100 µM. For the same compound, the TGI (SR leukemia) was greater than 100 µM, the GI50 (CCRF-CEM leukemia) was greater than 49 µM and the TGI (CCRF-CEM leukemia) was greater than 100 µM. It also gave a GI50 (A498 renal) of 47.8 µM, a TGI (A498 renal) greater than 100 µM and a GI50 (HOP-92 NSCLC) of 31.1 µM. The TGI (HOP-92 NSCLC) was greater than 100 µM.
